≈ marks a conversion by molar mass, not a printed value. Where two headings read alike, the source gives them in different places. Blank lines part the entries; values can stand above or below the compound they belong to.
Tests used:
H69/LX4 [1] = experiment: MTT assay, 7-day exposure to riminophenazines alone or with fixed doxorubicin or vinblastine (Example 3); details: Homo sapiens, 168 h, read-out: cytotoxic activity: concentrations at which cytotoxic
Description: The effects were examined of a 7-day exposure of selected compounds on the sensitivity of the cell line (H69/P) and the resistance cell line (H69/LX4) to the standard chemotherapeutic agents doxorubicin and vinblastine, using the MTT assay.
After incubation at 37°C for 7 days, 20 µℓ MTT (ie 3-[4,5-dimethylthiazol-2-yl]-2,5-diphenyl-tetrazolium bromide) at 5 mg/ml was added to each well and the plates incubated for a further 4 hours. The cells were washed with phosphate buffered saline and the intracellular formazan crystals solubilized with dimethylsulphoxide, and the absorbence measured spectrophotometrically at a test wavelength of 540 nm and a reference wavelength of 620 nm. The mean percentage inhibition ± SEM of four experiments using the relevant controls was taken.

K562/MMB = experiment: MTT assay, 7-day exposure to riminophenazines alone or with fixed doxorubicin or vinblastine (Example 4); format: cell-based; details: Homo sapiens, K562, 168 h
Description: A third cell line (562/MMB) used was a MDR leukemia cell line selected in vitro by progressive exposure to increasing concentrations of vinblastine in order to increase P-glycoprotein expression. […] This cell line expresses high levels of P-glycoprotein as determined by flowcytometry using the monoclonal antibody (MRK 16) against this molecule.
The effects were examined of a 7-day exposure of selected compounds on the sensitivity of the cell line (K562/MMB) to the standard chemotherapeutic agents doxorubicin and vinblastine, using the MTT assay.
The cells were seeded at 1 x 10^4 cells per well in 96 well microlitre plates in a volume of 200 µl of RPMI 1640 medium containing 10 % fetal calf serum and incubated with doxorubicin (12.5 ng/ml) or vinblastine (3 ng/ml). The amounts of MDR modulators used were 0.03, 0.06, 0.125, 0.5, 1.0 and 2.0 µg/ml.
After incubation at 37 °C for 7 days, 20 µl MTT (i.e. 3-[4,5-dimethylthiazol-2-yl]2,5-diphenyl-tetrazolium bromide) at 5 mg/ml was added to each well and the plates incubated for a further 4 hours. The cells were washed with phosphate buffered saline and the intracellular formazan crystals solubilized with dimethylsulphoxide, and the absorbency measured spectrophotometrically at a test wavelength of 540 nm and a reference wavelength of 620 nm.

H69/LX4 [2] = experiment: [14C]-vinblastine accumulation in MDR cell line (Example 2); format: cell-based, human; details: 1 hour pretreatment; 250 µg/mℓ [14C]-vinblastine for 30 minutes
Description: The effect of riminophenazines on the accumulation of [^14C]-vinblastine was investigated. For these experiments, both of the above cell lines (H69/LX4 and H69/P) were prepared as described by Coley et al (Biochem. Pharmacal 38, 4467-4475 (1989)). After a 1 hour pretreatment with the MDR reversal agents, cells (1 x 10^6/mℓ) were exposed to 250 µg/mℓ [^14C]-vinblastine (1 µCi specific activity) for 30 minutes. […] The results are illustrated in Figure 3 of the accompanying drawings.

H69/LX4 [3] = experiment: MTT assay, 7-day exposure: sensitivity of resistant (MDR) cells to chemotherapeutic agents with or without MDR inhibitor (Example 1); format: cell-based; details: Homo sapiens, 168 h
Text: (§1) A further test using no MDR inhibitor was used as a standard.
The cell lines used were human small cell lung cancer cell line HP69/P and a multi-drug resistant (MDR) sub-line H69/LX4, both of which were supplied by the MRC Clinical Oncology and Radiotherapeutics Unit, Hills Road, Cambridge, England. The maintenance of the cell lines and drug response assays was done as described by Twentyman et al in British Journal of Cancer Volume 65 pages 335-340. The H69/LX4 line was originally described by Twentyman et al in British Journal of Cancer Volume 53, pages 529-637 (1986).
The data in parenthesis represents fold sensitivity compared with the chemotherapeutic agent without the MDR inhibitor.

H69/P = experiment: MTT assay, 7-day exposure: sensitivity of parent cells to chemotherapeutic agents with or without MDR inhibitor (Example 1); format: cell-based, human; details: for IC50: Homo sapiens, 168 h
Text: as §1

[4] = in the presence of doxorubicin (12 ng/ml), read-out: IC 50 of riminophenazine, Doxorubicin
[5] = in the presence of vinblastine (3 ng/ml), read-out: IC 50 of riminophenazine, Vinblastine
[6] = riminophenazine alone, mean of 2 experiments, read-out: IC 50 of riminophenazine, None
[7] = read-out: IC50 of chemotherapeutic agent, MDR INHIBITOR CsA

IC50 (K562/MMB; [4]): 0.969 µg/mL
IC50 (K562/MMB; [5]): 0.116 µg/mL
IC50 (K562/MMB; [6]): 2.86 µg/mL (≈ 4040 nM)
Structure (SMILES): CC1(C)CC(N=c2cc3n(-c4cc(Cl)c(Cl)c(Cl)c4)c4ccccc4nc-3cc2Nc2cc(Cl)c(Cl)c(Cl)c2)CC(C)(C)N1 [Compound B4169, N,5-bis(3,4,5-trichlorophenyl)-3,5-dihydro-3[(2',2',6',6'-tetramethyl-4-piperidyl)-imino]-2-phenazinamine]
MCC (H69/LX4 [1]): > 12.5 µg/mL

IC50 (K562/MMB; [4]): 0.069 µg/mL
IC50 (K562/MMB; [6]): 0.139 µg/mL (≈ 313 nM)
Structure (SMILES): c1ccc(Nc2cc3nc4ccccc4n(-c4ccccc4)c-3cc2=NC2CCCCC2)cc1 [Compound B669]
vinblastine accumulation in the MDR cell line (H69/LX4) (H69/LX4 [2]): significant enhancement

Structure (SMILES): CC(C)N=c1cc2n(-c3ccc(Cl)cc3)c3ccccc3nc-2cc1Nc1ccc(Cl)cc1 [Compound B663, N,5-bis-(4-chlorophenyl)-3,5-dihydro-3-[(1-methylethyl)imino]-2-phenazinamine]
vinblastine accumulation in the MDR cell line (H69/LX4) (H69/LX4 [2]): significant enhancement
IC50 (K562/MMB; [4]): 0.135 µg/mL
IC50 (K562/MMB; [5]): < 0.05 µg/mL
IC50 (K562/MMB; [6]): 0.225 µg/mL (≈ 475 nM)

Structure (SMILES): COc1cc([C@@H]2c3cc4c(cc3[C@@H](O[C@@H]3O[C@@H]5CO[C@@H](C)O[C@H]5[C@H](O)[C@H]3O)[C@H]3COC(=O)[C@H]23)OCO4)cc(OC)c1O [Etoposide]
IC50 (H69/LX4 [3]; [7]): 0.08 ng/mL (≈ 0.136 nM)
IC50 (H69/LX4 [3]; H69/LX4, no MDR inhibitor, 7 day exposure, mean of 2 - 4 experiments, read-out: IC50 of chemotherapeutic agent, MDR INHIBITOR None): 13 ng/mL (≈ 22.1 nM)
IC50 (H69/LX4 [3]; H69/LX4, with B669 0.5 µg/ml, 7 day exposure, read-out: IC50 of chemotherapeutic agent, MDR INHIBITOR B669): 0.09 ng/mL (≈ 0.153 nM)
IC50 (H69/LX4 [3]; H69/LX4, with Clofazimine 1 µg/ml, 7 day exposure, read-out: IC50 of chemotherapeutic agent, MDR INHIBITOR Clofazimine (B663)): 2.6 ng/mL (≈ 4.42 nM)
fold sensitivity compared with the chemotherapeutic agent without the MDR inhibitor, B669 (H69/P; H69/P, with B669 0.5 µg/ml, value in parenthesis): 1.2 fold
fold sensitivity compared with the chemotherapeutic agent without the MDR inhibitor, Clofazimine (B663) (H69/P; H69/P, with Clofazimine 1 µg/ml, value in parenthesis): 0.6 fold
fold sensitivity compared with the chemotherapeutic agent without the MDR inhibitor, CsA (H69/P; H69/P, with CsA 5 µg/ml, value in parenthesis): 0.8 fold
IC50 (H69/P; [7]): 0.09 ng/mL (≈ 0.153 nM)
IC50 (H69/P; H69/P, no MDR inhibitor, 7 day exposure, mean of 2 - 4 experiments, read-out: IC50 of chemotherapeutic agent, MDR INHIBITOR None): 0.7 ng/mL (≈ 1.19 nM)
IC50 (H69/P; H69/P, with B669 0.5 µg/ml, 7 day exposure, read-out: IC50 of chemotherapeutic agent, MDR INHIBITOR B669): 0.06 ng/mL (≈ 0.102 nM)
IC50 (H69/P; H69/P, with Clofazimine 1 µg/ml, 7 day exposure, read-out: IC50 of chemotherapeutic agent, MDR INHIBITOR Clofazimine (B663)): 0.11 ng/mL (≈ 0.187 nM)
